This is an account of results in ChEMBL document CHEMBL3352674, “Pyrazolsulfonamide agonists of oxytocin receptor” (ACS Med Chem Lett, 2014).

Molecules are shown by their SMILES.

As a reminder, the EC50 is the concentration that produces a half-maximal response.

The target in the assay is T1, Oxytocin receptor (Homo sapiens, UniProt P30559).
T1 sequence (P30559 whole entry): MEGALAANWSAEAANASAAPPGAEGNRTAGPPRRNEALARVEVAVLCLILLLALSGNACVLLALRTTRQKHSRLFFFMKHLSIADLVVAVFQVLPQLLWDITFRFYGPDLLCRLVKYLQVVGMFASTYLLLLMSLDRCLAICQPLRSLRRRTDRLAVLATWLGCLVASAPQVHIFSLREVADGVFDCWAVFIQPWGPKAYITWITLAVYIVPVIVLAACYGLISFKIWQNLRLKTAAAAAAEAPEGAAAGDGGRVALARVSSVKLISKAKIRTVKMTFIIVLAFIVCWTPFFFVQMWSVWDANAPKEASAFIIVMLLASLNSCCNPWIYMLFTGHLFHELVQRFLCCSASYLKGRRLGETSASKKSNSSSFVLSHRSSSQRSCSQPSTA
The experiment in a line: Agonist activity at human oxytocin receptor expressed CHO cells assessed as calcium flux by FLIPR method. It counts as functional, cell-based. On the technique in general: Calcium assays in cells follow changes in intracellular calcium, usually with a dye or a luminescent sensor.

Turning to `O=S(=O)(Nc1ccnn1-c1ccccn1)c1ccc(Cl)cc1F`, the EC50 is 19 nM.

On to `O=S(=O)(Nc1ccnn1-c1ncc(C(F)(F)F)cn1)c1ccc(C(F)(F)F)cc1`, for which the EC50 was determined as 1570 nM.
